Like-named read-outs stand apart in the source and are kept apart here.
Columns and labels:
[1] = molecular target: SARS-CoV-2 3CL protease (Severe acute respiratory syndrome coronavirus 2, UniProt P0DTD1); experiment: biochemical; details: 50% SARS-CoV-2 3CL protease inhibitory concentration, read-out: IC50
[2] = tested on: SARS-CoV-2; experiment: microbe, parasite or virus in culture; type: cell-based; details: Severe acute respiratory syndrome coronavirus 2, VeroE6/TMPRSS2, 72 h, 50% SARS-CoV-2 infected cell death inhibitory concentration, VeroE6/TMPRSS2 cells, 3 days culture

| Compound | IC50 ([1]; RapidFire MS) [µM] | EC50 ([2]; CellTiter-Glo 2.0) [µM] | IC50 ([1]; given as class symbols) [µM] | EC50 ([2]; class symbols) [µM] |
| --- | --- | --- | --- | --- |
| Cc1cncc(-n2c(=O)nc(Nc3cc4cn(C)nc4cc3Cl)n(Cc3cc(F)c(F)c(Cl)c3)c2=O)c1 [II-0119] | 0.0089 | 0.183 |  |  |
| COc1ccc(Nc2nc(=O)n(Cc3cc(-c4ccccc4)c[nH]c3=O)c(=O)n2Cc2cc(F)c(F)c(F)c2)cc1 [Compound I-0318] | 0.11 | 1.36 | 0.1 to 1 | 1 to 10 |
| Cc1cncc(-n2c(=O)nc(Nc3ccc4oc(C)cc4c3)n(Cc3ccc(F)c(C#N)c3)c2=O)c1 [II-0196] |  |  | < 0.1 | < 1 |
| Cc1cncc(-n2c(=O)nc(Nc3cc4cn(C)nc4cc3Cl)n(Cc3cc(C#N)c(F)cc3Cc3cccc(Cl)c3)c2=O)c1 [II-0434] |  |  | < 0.1 | < 1 |
| COc1ccc(Nc2nc(=O)n(Cc3ccc[nH]c3=O)c(=O)n2Cc2cc(Cl)cc(Cl)c2)cc1 [Compound I-0213] |  |  | < 0.1 | 1 to 10 |
| CNc1nc2cc(Cl)c(Nc3nc(=O)n(-c4cncc(C)c4)c(=O)n3Cc3ccc(F)c(C#N)c3)cc2o1 [II-0512] |  |  | < 0.1 | 1 to 10 |
| COC(=O)c1cncc(-n2c(=O)nc(Nc3cc4cn(C)nc4cc3Cl)n(Cc3cc(F)c(F)c(F)c3)c2=O)c1 [II-0275] | 0.36 | 7.28 |  |  |
| COc1ccc(Nc2nc(=O)n(-c3cncc4ccncc34)c(=O)n2Cc2cc(F)c(F)c(F)c2)cc1 [Compound I-0344] |  |  | < 0.1 | < 1 |
| CNc1nc2cc(Cl)c(Nc3nc(=O)n(-c4cncc(Cl)c4)c(=O)n3Cc3cc(C#N)c(F)cn3)cc2s1 [II-0126] |  |  | < 0.1 | 1 to 10 |
| O=c1[nH]cccc1Cn1c(=O)nc(Nc2ccc3c(c2)CCO3)n(Cc2cc(F)c(F)c(F)c2)c1=O [Compound I-0025] |  |  | < 0.1 | 1 to 10 |
| Cc1cncc(-n2c(=O)nc(Nc3cc4cn(CC(=O)N(C)C)nc4cc3Cl)n(Cc3cc(F)c(F)c(F)c3)c2=O)c1 [II-0281] |  |  | < 0.1 | 1 to 10 |
| N#Cc1cc(Cn2c(Nc3cc4cn(CC(F)F)nc4cc3F)nc(=O)n(-c3cncc(Cl)c3)c2=O)ccc1F [II-0513] |  |  | < 0.1 | < 1 |
| Cn1cc2cc(Nc3nc(=O)n(-c4cncc(C#N)c4)c(=O)n3Cc3ccc(F)c(C#N)c3)ccc2n1 [II-0389] | 0.045 | 4.4 |  |  |
| Cn1cnc(Cn2c(=O)nc(Nc3cc4cn(C)nc4cc3Cl)n(Cc3ccc(F)cc3F)c2=O)n1 [II-0202] |  |  | < 0.1 | 1 to 10 |
| C/C=C/c1cc(F)c(F)cc1Cn1c(Nc2cc3cn(C)nc3cc2Cl)nc(=O)n(-c2cncc(C)c2)c1=O [II-0066] |  |  | < 0.1 | 1 to 10 |
| COc1ccc(Nc2nc(=O)n(CC3CCNC3=O)c(=O)n2Cc2cc(F)c(F)c(F)c2)cc1 (racemic) [Compound I-0301] | 3.8 |  | 1 to 10 | < 1 |
| N#Cc1cc(Cn2c(Nc3ccc4c(c3)CCO4)nc(=O)n(-c3cncc4ccccc34)c2=O)ccc1F [Compound I-0351] | 0.0043 | 0.0747 |  |  |
| CC(C)(Nc1nc(=O)n(Cc2ccc[nH]c2=O)c(=O)n1Cc1cc(F)c(F)c(F)c1)c1ccccc1F [II-0482] | 0.41 | 44.5 |  |  |
| Cc1cc2nn(C)cc2cc1Nc1nc(=O)n(-c2cccc3cnccc23)c(=O)n1Cc1cc(F)c(F)c(F)c1 [Compound I-0369] |  |  | < 0.1 | 1 to 10 |
| COc1cc(Cl)c(Nc2nc(=O)n(Cc3ccc[nH]c3=O)c(=O)n2Cc2cc(F)c(F)c(F)c2)c(Cl)c1 [Compound I-0437] |  |  | < 0.1 | 1 to 10 |
| Cc1cncc(-n2c(=O)nc(Nc3ccc4nn(C)cc4c3)n(Cc3cc(C#N)ccc3C)c2=O)c1 [II-0125] | 0.0048 | 0.22 |  |  |
| CCCCn1cc2cc(Nc3nc(=O)n(Cc4ccc[nH]c4=O)c(=O)n3Cc3cc(F)c(F)c(F)c3)c(Cl)cc2n1 [Compound I-0286] |  |  | < 0.1 | 1 to 10 |

| Compound | IC50 ([1]; RapidFire MS) [µM] | EC50 ([2]; CellTiter-Glo 2.0) [µM] | IC50 ([1]; given as class symbols) [µM] | EC50 ([2]; class symbols) [µM] |
| --- | --- | --- | --- | --- |
| Cc1cncc(-n2c(=O)nc(Nc3ccc4nn(C)cc4c3)n(Cc3ccc(F)c(Cl)c3)c2=O)c1 [II-0469] |  |  | < 0.1 | < 1 |
| Cc1ccc(C#N)cc1Cn1c(Nc2ccc3nn(CC(F)(F)F)cc3c2)nc(=O)n(-c2cncc(Cl)c2)c1=O [II-0304] | 0.0045 | 0.213 |  |  |
| Cc1cncc(-n2c(=O)nc(Nc3cc4cn(C)nc4cc3Cl)n(Cc3cc(C#N)c(F)cc3CCC(C)C)c2=O)c1 [II-0092] |  |  | < 0.1 | < 1 |
| CNc1nc2ccc(Nc3nc(=O)n(-c4cncc(Cl)c4)c(=O)n3Cc3cc(C#N)ccc3Cl)cc2s1 [II-0398] |  |  | < 0.1 | < 1 |
| Cc1cncc(-n2c(=O)nc(Nc3cc4cn(CC5CC5)nc4cc3Cl)n(Cc3ccc(F)c(C#N)c3)c2=O)c1 [II-0345] |  |  | < 0.1 | < 1 |
| COc1cc(Cl)c(Nc2nc(=O)n(Cc3ccc[nH]c3=O)c(=O)n2Cc2cc(F)c(F)c(F)c2)cn1 [Compound I-0245] |  |  | < 0.1 | 1 to 10 |
| Cc1cncc(-n2c(=O)nc(Nc3cc4cn(C)nc4cc3Cl)n(Cc3cc(C#N)c(F)cc3C(F)F)c2=O)c1 [II-0583] |  |  | < 0.1 | < 1 |
| Cc1cncc(-n2c(=O)nc(Nc3ccc4nn(C)nc4c3)n(Cc3ccc(F)c(C#N)c3)c2=O)c1 [II-0183] |  |  | < 0.1 | < 1 |
| Cn1cc2cc(Nc3nc(=O)n(-c4cncc(Cl)c4)c(=O)n3Cc3cc(F)c(F)cc3F)ccc2n1 [II-0288] | 0.099 | 2.4 |  |  |
| COCCCn1cc2cc(Nc3nc(=O)n(Cc4ccc[nH]c4=O)c(=O)n3Cc3cc(F)c(F)c(F)c3)c(Cl)cc2n1 [Compound I-0248] |  |  | < 0.1 | 1 to 10 |
| COc1ccc(Nc2nc(=O)n(CC3CCN(C)C3)c(=O)n2Cc2cc(F)c(F)c(F)c2)cc1 (centres unmarked) [II-0259] | 3.4 | 36.3 |  |  |
| CNc1nc2cc(Cl)c(Nc3nc(=O)n(Cc4ncn(C)n4)c(=O)n3Cc3cc(F)c(F)cc3F)cc2o1 [II-0517] |  |  | < 0.1 | 1 to 10 |
| Cc1nc2cc(Cl)c(Nc3nc(=O)n(Cc4ncn(C)n4)c(=O)n3Cc3cc(F)c(F)cc3F)cc2o1 [II-0326] |  |  | < 0.1 | 1 to 10 |
| CCn1cc2cc(Nc3nc(=O)n(-c4cncc(Cl)c4)c(=O)n3Cc3cc(C#N)ccc3C)ccc2n1 [II-0034] | 0.0073 | 0.234 |  |  |
| Cn1cnc(Cn2c(=O)nc(Nc3cc4c(C(F)(F)F)n(C)nc4cc3Cl)n(Cc3cc(F)c(F)cc3F)c2=O)n1 [II-0468] |  |  | < 0.1 | 1 to 10 |
| N#Cc1cc(Cn2c(Nc3cc4cn(CCO)nc4cc3Cl)nc(=O)n(-c3cccc4ccccc34)c2=O)ccc1F [Compound I-0435] |  |  | < 0.1 | 1 to 10 |
| Cn1cnc(Cn2c(=O)nc(Nc3cc4sc(NC5CC5)nc4cc3Cl)n(Cc3cc(F)c(F)cc3F)c2=O)n1 [II-0306] | 0.0051 | 0.41 |  |  |
| N#CCn1cc2cc(Nc3nc(=O)n(Cc4ccc[nH]c4=O)c(=O)n3Cc3cc(F)c(F)c(F)c3)c(Cl)cc2n1 [II-0507] |  |  | < 0.1 | 1 to 10 |
| Cc1cncc(-n2c(=O)nc(Nc3cc4sc(NC5CC5)nc4cc3Cl)n(Cc3ccc(F)c(C#N)c3)c2=O)c1 [II-0303] |  |  | < 0.1 | < 1 |
| Cn1cc2cc(Nc3nc(=O)n(Cc4ccc[nH]c4=O)c(=O)n3Cc3ccc(F)c(C#N)c3)c(Cl)cc2n1 [Compound I-0267] |  |  | < 0.1 | 1 to 10 |
| CCNc1nc2cc(Cl)c(Nc3nc(=O)n(Cc4ncn(C)n4)c(=O)n3Cc3cc(F)c(F)cc3F)cc2s1 [II-0339] |  |  | < 0.1 | < 1 |
